Experimental data from PubChem BioAssay (NCI).
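Interpolation was linear, between the two tested concentrations surrounding the appropriate level; five concentrations were tested over 48 hours in 96-well plates. GI50 = concentration required for 50% inhibition of growth. TGI: total growth inhibition.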

Columns and labels:
Experiment in all cases: NCI tumour cell line growth inhibition, 48 h
NCI-H23 lung = system: NCI-H23 lung
UACC-62 melanoma = system: UACC-62 melanoma
MDA-MB-231 breast = system: MDA-MB-231 breast
DU-145 prostate = system: DU-145 prostate
HL-60(TB) leukemia = system: HL-60(TB) leukemia
HOP-92 NSCLC = system: HOP-92 NSCLC
PC-3 prostate = system: PC-3 prostate
UO-31 renal = system: UO-31 renal
CAKI-1 renal = system: CAKI-1 renal
OVCAR-5 ovarian = system: OVCAR-5 ovarian
HCC-2998 colon = system: HCC-2998 colon
OVCAR-8 ovarian = system: OVCAR-8 ovarian
SNB-19 CNS = system: SNB-19 CNS
SK-MEL-5 melanoma = system: SK-MEL-5 melanoma
NCI-H460 lung = system: NCI-H460 lung
MDA-MB-435 = system: MDA-MB-435
TK-10 renal = system: TK-10 renal
SK-MEL-2 melanoma = system: SK-MEL-2 melanoma
M14 melanoma = system: M14 melanoma
SF-539 CNS = system: SF-539 CNS
SNB-75 CNS = system: SNB-75 CNS
SN12C renal = system: SN12C renal
MALME-3M melanoma = system: MALME-3M melanoma
BT-549 breast = system: BT-549 breast
ACHN renal = system: ACHN renal
IGROV1 ovarian = system: IGROV1 ovarian
SK-MEL-28 melanoma = system: SK-MEL-28 melanoma
NCI/ADR-RES ovarian = system: NCI/ADR-RES ovarian
SK-OV-3 ovarian = system: SK-OV-3 ovarian
UACC-257 melanoma = system: UACC-257 melanoma
K-562 leukemia = system: K-562 leukemia
A498 renal = system: A498 renal
RPMI-8226 leukemia = system: RPMI-8226 leukemia
OVCAR-4 ovarian = system: OVCAR-4 ovarian
U251 CNS = system: U251 CNS
LOX IMVI melanoma = system: LOX IMVI melanoma
786-0 renal = system: 786-0 renal
MOLT-4 leukemia = system: MOLT-4 leukemia
HS 578T breast = system: HS 578T breast
COLO 205 colon = system: COLO 205 colon
HT29 colon = system: HT29 colon
HCT-15 colon = system: HCT-15 colon
NCI-H226 lung = system: NCI-H226 lung
SR leukemia = system: SR leukemia
SF-295 CNS = system: SF-295 CNS
MCF7 breast = system: MCF7 breast
SW-620 colon = system: SW-620 colon
KM12 colon = system: KM12 colon
SF-268 CNS = system: SF-268 CNS
RXF 393 renal = system: RXF 393 renal
OVCAR-3 ovarian = system: OVCAR-3 ovarian
A549 NSCLC = system: A549 NSCLC
EKVX NSCLC = system: EKVX NSCLC
HCT-116 colon = system: HCT-116 colon
CCRF-CEM leukemia = system: CCRF-CEM leukemia
HOP-62 NSCLC = system: HOP-62 NSCLC

`NCCCNc1nc2ccccc2c2c(=O)c3cc(OC(F)(F)F)ccc3sc12` showed a GI50 (NCI-H23 lung) of 1620 nM, a TGI (NCI-H23 lung) of 3090 nM and a GI50 (UACC-62 melanoma) of 1660 nM. The TGI (UACC-62 melanoma) was 3070 nM, the GI50 (MDA-MB-231 breast) was 1260 nM and the TGI (MDA-MB-231 breast) was 2600 nM. It also gave a GI50 (DU-145 prostate) of 1620 nM, a TGI (DU-145 prostate) of 3040 nM and a GI50 (HL-60(TB) leukemia) of 1840 nM. The TGI (HL-60(TB) leukemia) was 3590 nM, the GI50 (HOP-92 NSCLC) was 1080 nM and the TGI (HOP-92 NSCLC) was 2360 nM. The GI50 (PC-3 prostate) was 1670 nM, the TGI (PC-3 prostate) was 3190 nM and the GI50 (UO-31 renal) was 1490 nM. It also gave a TGI (UO-31 renal) of 2900 nM, a GI50 (CAKI-1 renal) of 1580 nM and a TGI (CAKI-1 renal) of 2930 nM. For the same compound, the GI50 (OVCAR-5 ovarian) was 1640 nM, the TGI (OVCAR-5 ovarian) was 3070 nM and the GI50 (HCC-2998 colon) was 1710 nM. The TGI (HCC-2998 colon) was 3250 nM, the GI50 (OVCAR-8 ovarian) was 2010 nM and the TGI (OVCAR-8 ovarian) was 4770 nM. For the same compound, the GI50 (SNB-19 CNS) was 1630 nM, the TGI (SNB-19 CNS) was 3120 nM and the GI50 (SK-MEL-5 melanoma) was 1830 nM. For the same compound, the TGI (SK-MEL-5 melanoma) was 3360 nM, the GI50 (NCI-H460 lung) was 1110 nM and the TGI (NCI-H460 lung) was 2520 nM. It also gave a GI50 (MDA-MB-435) of 1590 nM, a TGI (MDA-MB-435) of 2960 nM and a GI50 (TK-10 renal) of 2140 nM. It also gave a TGI (TK-10 renal) of 3740 nM, a GI50 (SK-MEL-2 melanoma) of 1930 nM and a TGI (SK-MEL-2 melanoma) of 3720 nM. The GI50 (M14 melanoma) was 1670 nM, the TGI (M14 melanoma) was 3160 nM and the GI50 (SF-539 CNS) was 1680 nM. The TGI (SF-539 CNS) was 3150 nM, the GI50 (SNB-75 CNS) was 1390 nM and the TGI (SNB-75 CNS) was 2730 nM. The GI50 (SN12C renal) was 1660 nM, the TGI (SN12C renal) was 3140 nM and the GI50 (MALME-3M melanoma) was 1570 nM. It also gave a TGI (MALME-3M melanoma) of 3080 nM, a GI50 (BT-549 breast) of 10700 nM and a TGI (BT-549 breast) of 32600 nM. The GI50 (ACHN renal) was 1600 nM, the TGI (ACHN renal) was 2960 nM and the GI50 (IGROV1 ovarian) was 1460 nM. The TGI (IGROV1 ovarian) was 2900 nM, the GI50 (SK-MEL-28 melanoma) was 1800 nM and the TGI (SK-MEL-28 melanoma) was 3240 nM. It also gave a GI50 (NCI/ADR-RES ovarian) of 1730 nM and a TGI (NCI/ADR-RES ovarian) of 3410 nM.
`Fc1c[c-]c(-c2ccccn2)c(F)c1.Fc1c[c-]c(-c2ccccn2)c(F)c1.[Cl][Pt+].[Cl][Pt+].c1ccc([PH+](C[PH+](c2ccccc2)c2ccccc2)c2ccccc2)cc1` showed a GI50 (SK-OV-3 ovarian) of 330 nM, a TGI (SK-OV-3 ovarian) of 910 nM and a GI50 (UACC-257 melanoma) of 235 nM. For the same compound, the TGI (UACC-257 melanoma) was 815 nM, the GI50 (K-562 leukemia) was 95.5 nM and the TGI (K-562 leukemia) was over 100000 nM. It also gave a GI50 (A498 renal) of 164 nM, a TGI (A498 renal) of 461 nM and a GI50 (MDA-MB-231 breast) of 139 nM. For the same compound, the TGI (MDA-MB-231 breast) was 373 nM, the GI50 (RPMI-8226 leukemia) was 80 nM and the TGI (RPMI-8226 leukemia) was 466 nM. For the same compound, the GI50 (HL-60(TB) leukemia) was 271 nM, the TGI (HL-60(TB) leukemia) was 813 nM and the GI50 (SK-MEL-5 melanoma) was 164 nM. It also gave a TGI (SK-MEL-5 melanoma) of 307 nM, a GI50 (OVCAR-4 ovarian) of 154 nM and a TGI (OVCAR-4 ovarian) of 977 nM. It also gave a GI50 (U251 CNS) of 63 nM, a TGI (U251 CNS) of 218 nM and a GI50 (LOX IMVI melanoma) of 380 nM. The TGI (LOX IMVI melanoma) was 1380 nM, the GI50 (SK-MEL-2 melanoma) was 193 nM and the TGI (SK-MEL-2 melanoma) was 479 nM. It also gave a GI50 (786-0 renal) of 184 nM, a TGI (786-0 renal) of 380 nM and a GI50 (MALME-3M melanoma) of 264 nM. For the same compound, the TGI (MALME-3M melanoma) was 758 nM, the GI50 (MOLT-4 leukemia) was 328 nM and the GI50 (HS 578T breast) was 275 nM. It also gave a TGI (HS 578T breast) of 1170 nM, a GI50 (COLO 205 colon) of 132 nM and a TGI (COLO 205 colon) of 362 nM.
`O=[N+]([O-])c1ccccc1S(=O)(=O)c1cc(Cl)cc2c1NCCC2` showed a TGI (SK-OV-3 ovarian) of over 100000 nM, a TGI (UACC-257 melanoma) of 96700 nM and a TGI (K-562 leukemia) of over 100000 nM. It also gave a TGI (HT29 colon) of over 100000 nM, a TGI (UACC-62 melanoma) of over 100000 nM and a TGI (A498 renal) of over 100000 nM. It also gave a TGI (MDA-MB-231 breast) of over 100000 nM, a TGI (HCT-15 colon) of over 100000 nM and a TGI (DU-145 prostate) of over 100000 nM. It also gave a TGI (NCI-H226 lung) of over 100000 nM, a TGI (RPMI-8226 leukemia) of over 100000 nM and a TGI (HL-60(TB) leukemia) of over 100000 nM. It also gave a TGI (SR leukemia) of over 100000 nM, a TGI (HOP-92 NSCLC) of over 100000 nM and a TGI (PC-3 prostate) of over 100000 nM. For the same compound, the TGI (UO-31 renal) was over 100000 nM, the TGI (CAKI-1 renal) was over 100000 nM and the TGI (SF-295 CNS) was over 100000 nM. It also gave a TGI (OVCAR-5 ovarian) of over 100000 nM, a TGI (MCF7 breast) of over 100000 nM and a TGI (HCC-2998 colon) of over 100000 nM. For the same compound, the TGI (OVCAR-8 ovarian) was over 100000 nM, the TGI (SW-620 colon) was over 100000 nM and the TGI (KM12 colon) was over 100000 nM. It also gave a TGI (SNB-19 CNS) of over 100000 nM, a TGI (SF-268 CNS) of over 100000 nM and a TGI (SK-MEL-5 melanoma) of 86100 nM. The TGI (OVCAR-4 ovarian) was over 100000 nM, the TGI (RXF 393 renal) was over 100000 nM and the TGI (OVCAR-3 ovarian) was over 100000 nM. It also gave a TGI (NCI-H460 lung) of over 100000 nM, a TGI (MDA-MB-435) of over 100000 nM and a TGI (LOX IMVI melanoma) of over 100000 nM. It also gave a TGI (TK-10 renal) of over 100000 nM, a TGI (SK-MEL-2 melanoma) of over 100000 nM and a TGI (A549 NSCLC) of over 100000 nM. It also gave a TGI (M14 melanoma) of over 100000 nM, a TGI (SF-539 CNS) of over 100000 nM and a TGI (786-0 renal) of over 100000 nM. It also gave a TGI (SNB-75 CNS) of over 100000 nM, a TGI (SN12C renal) of over 100000 nM and a TGI (MALME-3M melanoma) of 74100 nM. It also gave a TGI (BT-549 breast) of over 100000 nM, a TGI (EKVX NSCLC) of over 100000 nM and a TGI (MOLT-4 leukemia) of over 100000 nM. The TGI (ACHN renal) was over 100000 nM, the TGI (IGROV1 ovarian) was over 100000 nM and the TGI (SK-MEL-28 melanoma) was over 100000 nM. For the same compound, the TGI (NCI/ADR-RES ovarian) was over 100000 nM, the TGI (HS 578T breast) was over 100000 nM and the TGI (HCT-116 colon) was over 100000 nM. The TGI (COLO 205 colon) was over 100000 nM, the TGI (CCRF-CEM leukemia) was over 100000 nM and the TGI (HOP-62 NSCLC) was over 100000 nM.
